This note sets out measurements from paper PMC10412597, “Small molecule branched-chain ketoacid dehydrogenase kinase (BDK) inhibitors with opposing effects on BDK protein levels” (Nature Communications, 2023).

Set-up in all cases: Cerep Bioprint off-target panel, functional receptor agonism or antagonism
Test [1] addresses T1, Cannabinoid CB1 (Homo sapiens, UniProt P21554).
T1 construct: gene CNR1
The gist of the method: (§1)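 Values come from off-target panels: the CEREP panel covers the receptor entries and a kinase panel covers ABL1.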

In test [2] the target is T2, Vasopressin 1a (Homo sapiens, UniProt P37288).
T2 construct: gene AVPR1A
As to conditions: agonist. In short, it runs like this: as §1

Test [3] concerns the target T3, Adenosine A2a Receptor (Homo sapiens, UniProt P29274).
T3 construct: gene ADORA2A
As to conditions: agonist. In short, it runs like this: as §1

Test [4] concerns the target T4, Mu Opioid (Homo sapiens, UniProt P35372).
T4 construct: gene OPRM1
Particulars: agonist. In short, it runs like this:
as §1

For test [5], the target named is T5, Melanocortin MC2 Receptor (Homo sapiens, UniProt Q01718).
T5 construct: gene MC2R
The gist of the method: as §1

The target of test [6] is T6, Adrenergic Beta 1 Adrenoceptor (Homo sapiens, UniProt P08588).
T6 construct: gene ADRB1
In short, it runs like this: as §1

The target in test [7] is T7, Kappa Opioid (Homo sapiens, UniProt P41145).
T7 construct: gene OPRK1
As to conditions: agonist. The gist of the method: as §1

For test [8], the target named is T8, Muscarinic 3 (Homo sapiens, UniProt P20309).
T8 construct: gene CHRM3
The gist of the method:
as §1

For test [9], the target named is T9, Serotonin 5-HT1a Receptor (Homo sapiens, UniProt P08908).
T9 construct: gene HTR1A
As to conditions: agonist. In short, it runs like this:
as §1

Test [10] deals with T10, Dopamine D1 (Homo sapiens, UniProt P21728).
T10 construct: gene DRD1
The gist of the method: as §1

Test [11] deals with T11, Thyrotopin Releasing Hormone 1 (TRH1) Receptor (Homo sapiens, UniProt P34981).
T11 construct: gene TRHR
T11 sequence (P34981 1-398): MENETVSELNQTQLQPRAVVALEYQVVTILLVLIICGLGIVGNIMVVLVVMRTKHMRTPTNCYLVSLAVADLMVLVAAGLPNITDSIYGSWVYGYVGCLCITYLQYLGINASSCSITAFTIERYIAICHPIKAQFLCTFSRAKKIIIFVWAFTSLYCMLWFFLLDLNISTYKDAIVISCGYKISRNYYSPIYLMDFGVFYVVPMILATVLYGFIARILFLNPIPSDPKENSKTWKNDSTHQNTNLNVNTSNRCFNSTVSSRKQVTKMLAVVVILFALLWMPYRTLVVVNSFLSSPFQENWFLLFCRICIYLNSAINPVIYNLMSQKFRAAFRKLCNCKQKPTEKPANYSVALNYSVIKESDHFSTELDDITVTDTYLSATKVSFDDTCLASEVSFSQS
In short, it runs like this:
as §1

In test [12] the target is T12, Adrenergic Alpha 2a receptor (Homo sapiens, UniProt P08913).
T12 construct: gene ADRA2A
As to conditions: agonist. In short, it runs like this:
as §1

For test [13], the target named is T13, Angiotensin 1 (Homo sapiens, UniProt P30556).
T13 construct: gene AGTR1
T13 sequence (P30556 1-359): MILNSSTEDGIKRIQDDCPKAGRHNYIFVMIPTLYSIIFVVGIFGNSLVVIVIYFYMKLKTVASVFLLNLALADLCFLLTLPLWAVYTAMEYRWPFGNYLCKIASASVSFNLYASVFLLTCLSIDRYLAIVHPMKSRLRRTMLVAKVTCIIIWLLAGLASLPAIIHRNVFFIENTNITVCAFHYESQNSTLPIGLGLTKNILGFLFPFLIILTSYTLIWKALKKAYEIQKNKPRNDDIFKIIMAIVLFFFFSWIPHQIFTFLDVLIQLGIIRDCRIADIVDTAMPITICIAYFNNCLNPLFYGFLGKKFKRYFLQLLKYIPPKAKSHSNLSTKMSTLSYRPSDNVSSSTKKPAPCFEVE
In short, it runs like this:
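Off-target profiling of BDK inhibitor candidates: the receptor targets were run in a CEREP panel and ABL1 in a kinase panel.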

T6 sequence (P08588 whole entry): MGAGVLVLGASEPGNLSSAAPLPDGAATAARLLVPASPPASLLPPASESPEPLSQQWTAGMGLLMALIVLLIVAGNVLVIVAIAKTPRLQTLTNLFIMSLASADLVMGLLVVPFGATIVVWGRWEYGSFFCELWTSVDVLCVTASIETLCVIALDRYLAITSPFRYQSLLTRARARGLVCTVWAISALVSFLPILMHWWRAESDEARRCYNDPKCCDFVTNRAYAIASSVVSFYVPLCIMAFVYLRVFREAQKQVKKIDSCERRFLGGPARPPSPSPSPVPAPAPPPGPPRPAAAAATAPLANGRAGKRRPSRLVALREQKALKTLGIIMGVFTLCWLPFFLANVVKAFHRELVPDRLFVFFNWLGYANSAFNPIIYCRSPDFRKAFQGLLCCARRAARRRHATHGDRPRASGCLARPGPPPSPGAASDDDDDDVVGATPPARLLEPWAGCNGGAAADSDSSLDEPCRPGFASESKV
T8 sequence (P20309 whole entry): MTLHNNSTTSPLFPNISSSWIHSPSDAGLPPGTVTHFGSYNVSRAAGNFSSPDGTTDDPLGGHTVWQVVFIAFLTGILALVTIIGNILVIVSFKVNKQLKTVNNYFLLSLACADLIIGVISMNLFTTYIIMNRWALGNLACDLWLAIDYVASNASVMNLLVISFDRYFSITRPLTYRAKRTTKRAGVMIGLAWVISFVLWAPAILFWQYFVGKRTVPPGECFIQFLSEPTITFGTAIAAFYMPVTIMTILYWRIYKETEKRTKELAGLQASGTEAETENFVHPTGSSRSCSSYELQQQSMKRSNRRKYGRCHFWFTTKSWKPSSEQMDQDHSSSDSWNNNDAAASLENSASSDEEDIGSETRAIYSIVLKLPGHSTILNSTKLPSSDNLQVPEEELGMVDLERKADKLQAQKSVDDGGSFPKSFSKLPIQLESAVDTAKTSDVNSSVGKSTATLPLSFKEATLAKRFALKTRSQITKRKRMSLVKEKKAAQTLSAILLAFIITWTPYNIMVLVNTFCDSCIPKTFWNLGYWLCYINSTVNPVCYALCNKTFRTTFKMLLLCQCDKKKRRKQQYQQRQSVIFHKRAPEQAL
T1 sequence (P21554 whole entry): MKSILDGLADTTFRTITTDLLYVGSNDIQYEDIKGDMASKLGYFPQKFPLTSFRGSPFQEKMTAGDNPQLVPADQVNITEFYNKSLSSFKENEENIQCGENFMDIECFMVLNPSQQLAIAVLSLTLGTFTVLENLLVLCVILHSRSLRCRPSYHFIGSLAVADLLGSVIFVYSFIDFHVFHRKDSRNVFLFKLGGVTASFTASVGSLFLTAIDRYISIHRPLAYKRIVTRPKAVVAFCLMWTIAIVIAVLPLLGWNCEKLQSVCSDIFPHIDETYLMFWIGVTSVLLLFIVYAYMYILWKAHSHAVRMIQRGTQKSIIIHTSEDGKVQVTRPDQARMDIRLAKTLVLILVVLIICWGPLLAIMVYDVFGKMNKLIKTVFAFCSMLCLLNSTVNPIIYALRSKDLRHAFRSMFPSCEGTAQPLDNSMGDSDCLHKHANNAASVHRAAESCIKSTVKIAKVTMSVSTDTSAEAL
T10 sequence (P21728 whole entry): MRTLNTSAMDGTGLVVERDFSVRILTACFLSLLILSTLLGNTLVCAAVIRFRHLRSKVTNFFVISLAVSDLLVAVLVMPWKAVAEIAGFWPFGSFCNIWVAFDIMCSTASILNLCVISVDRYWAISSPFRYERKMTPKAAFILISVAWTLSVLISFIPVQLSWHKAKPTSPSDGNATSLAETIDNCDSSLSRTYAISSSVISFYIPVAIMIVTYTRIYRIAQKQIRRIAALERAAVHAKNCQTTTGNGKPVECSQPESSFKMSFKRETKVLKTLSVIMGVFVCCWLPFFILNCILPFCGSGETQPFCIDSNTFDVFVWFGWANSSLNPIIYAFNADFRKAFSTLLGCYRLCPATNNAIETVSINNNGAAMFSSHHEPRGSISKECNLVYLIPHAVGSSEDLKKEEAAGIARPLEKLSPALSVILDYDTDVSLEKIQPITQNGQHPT
T5 sequence (Q01718 whole entry): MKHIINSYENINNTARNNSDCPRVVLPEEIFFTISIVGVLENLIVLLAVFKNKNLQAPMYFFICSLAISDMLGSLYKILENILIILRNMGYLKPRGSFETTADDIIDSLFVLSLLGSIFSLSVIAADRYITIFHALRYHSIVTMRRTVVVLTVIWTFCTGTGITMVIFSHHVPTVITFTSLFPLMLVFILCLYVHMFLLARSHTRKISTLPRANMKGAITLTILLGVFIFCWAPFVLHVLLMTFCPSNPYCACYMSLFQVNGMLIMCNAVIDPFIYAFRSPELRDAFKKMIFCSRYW
T4 sequence (P35372 whole entry): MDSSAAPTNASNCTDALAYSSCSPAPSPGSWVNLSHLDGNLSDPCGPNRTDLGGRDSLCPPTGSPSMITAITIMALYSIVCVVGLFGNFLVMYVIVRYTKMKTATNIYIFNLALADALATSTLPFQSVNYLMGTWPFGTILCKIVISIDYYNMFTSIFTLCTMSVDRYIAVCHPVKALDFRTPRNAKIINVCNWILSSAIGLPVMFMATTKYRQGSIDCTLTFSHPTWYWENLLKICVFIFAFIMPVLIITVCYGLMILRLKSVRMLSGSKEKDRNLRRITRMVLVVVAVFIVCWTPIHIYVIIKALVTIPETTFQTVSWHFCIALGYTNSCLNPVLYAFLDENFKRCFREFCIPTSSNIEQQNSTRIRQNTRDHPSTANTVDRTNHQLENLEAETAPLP
T3 sequence (P29274 whole entry): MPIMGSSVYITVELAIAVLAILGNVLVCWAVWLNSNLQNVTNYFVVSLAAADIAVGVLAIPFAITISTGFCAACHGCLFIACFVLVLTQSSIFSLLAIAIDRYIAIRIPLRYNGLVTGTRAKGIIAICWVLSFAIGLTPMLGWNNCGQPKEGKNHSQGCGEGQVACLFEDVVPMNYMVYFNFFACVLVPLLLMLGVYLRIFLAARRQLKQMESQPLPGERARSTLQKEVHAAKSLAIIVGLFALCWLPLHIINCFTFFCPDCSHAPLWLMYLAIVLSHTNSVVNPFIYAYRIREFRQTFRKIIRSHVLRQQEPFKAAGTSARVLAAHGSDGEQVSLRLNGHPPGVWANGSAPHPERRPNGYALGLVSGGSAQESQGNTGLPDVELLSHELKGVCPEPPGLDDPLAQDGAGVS
T7 sequence (P41145 whole entry): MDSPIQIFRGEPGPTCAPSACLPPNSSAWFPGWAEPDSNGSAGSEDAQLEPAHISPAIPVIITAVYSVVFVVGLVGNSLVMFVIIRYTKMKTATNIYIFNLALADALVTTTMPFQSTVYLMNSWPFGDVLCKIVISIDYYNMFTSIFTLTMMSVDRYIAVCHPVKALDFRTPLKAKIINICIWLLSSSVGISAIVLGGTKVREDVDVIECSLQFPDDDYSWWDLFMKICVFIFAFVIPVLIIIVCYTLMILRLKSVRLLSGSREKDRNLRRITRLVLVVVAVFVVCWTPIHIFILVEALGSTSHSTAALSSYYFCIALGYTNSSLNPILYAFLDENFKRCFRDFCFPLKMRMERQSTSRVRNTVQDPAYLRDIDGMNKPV
T12 sequence (P08913 whole entry): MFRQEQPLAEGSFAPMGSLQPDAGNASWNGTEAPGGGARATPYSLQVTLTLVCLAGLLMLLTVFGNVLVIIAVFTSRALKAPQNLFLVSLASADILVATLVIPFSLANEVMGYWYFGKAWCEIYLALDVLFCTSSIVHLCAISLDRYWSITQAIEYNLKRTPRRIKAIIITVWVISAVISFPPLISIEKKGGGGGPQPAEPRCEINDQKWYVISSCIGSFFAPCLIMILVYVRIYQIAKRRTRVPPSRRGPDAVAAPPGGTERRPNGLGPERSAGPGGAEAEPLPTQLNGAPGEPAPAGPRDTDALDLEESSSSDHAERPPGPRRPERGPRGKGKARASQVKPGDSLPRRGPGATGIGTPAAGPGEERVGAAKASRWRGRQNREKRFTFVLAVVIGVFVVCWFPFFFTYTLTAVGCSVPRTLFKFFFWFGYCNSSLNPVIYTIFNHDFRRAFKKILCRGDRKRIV
T2 sequence (P37288 whole entry): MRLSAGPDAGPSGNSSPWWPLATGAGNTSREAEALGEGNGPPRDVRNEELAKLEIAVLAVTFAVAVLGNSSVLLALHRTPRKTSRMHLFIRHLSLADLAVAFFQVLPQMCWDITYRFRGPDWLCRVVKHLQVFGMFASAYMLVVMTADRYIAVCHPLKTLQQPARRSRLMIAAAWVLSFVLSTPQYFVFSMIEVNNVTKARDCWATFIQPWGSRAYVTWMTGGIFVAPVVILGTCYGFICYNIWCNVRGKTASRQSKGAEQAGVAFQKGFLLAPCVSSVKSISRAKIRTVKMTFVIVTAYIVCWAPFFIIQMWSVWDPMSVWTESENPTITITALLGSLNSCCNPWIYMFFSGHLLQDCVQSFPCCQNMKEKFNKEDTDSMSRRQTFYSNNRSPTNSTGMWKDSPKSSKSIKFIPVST
T9 sequence (P08908 whole entry): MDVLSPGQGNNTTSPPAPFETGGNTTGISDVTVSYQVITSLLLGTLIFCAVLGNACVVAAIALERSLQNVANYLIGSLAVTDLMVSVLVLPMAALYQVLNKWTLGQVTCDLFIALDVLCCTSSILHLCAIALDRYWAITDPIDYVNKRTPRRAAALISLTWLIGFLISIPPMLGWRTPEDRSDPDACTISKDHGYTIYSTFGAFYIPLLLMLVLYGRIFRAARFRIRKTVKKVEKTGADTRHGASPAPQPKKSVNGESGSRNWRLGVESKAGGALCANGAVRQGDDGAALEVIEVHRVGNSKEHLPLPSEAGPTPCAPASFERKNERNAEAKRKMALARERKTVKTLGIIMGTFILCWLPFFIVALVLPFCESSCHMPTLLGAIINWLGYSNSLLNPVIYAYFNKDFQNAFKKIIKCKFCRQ

As for `O=C(O)c1sc2cc(F)sc2c1Cl` [PF-07208254, 3-chloro-5-fluorothieno[3,2-b]thiophene-2-carboxylic acid], the “% (agonism) PF-07208254” value in test [1] (100 µM, agonist) is 55%; in test [2] (100 µM) it was 16%; in [3] (100 µM), 0%; in test [4] (100 µM) it was 16%; in test [5] (100 µM, agonist), 0%; in test [6] (100 µM, agonist) it was 2%. Moreover, the “% (agonism) PF-07208254” value is on record as -3% in [7] (100 µM); 0% in test [8] (100 µM, agonist); -1% in test [9] (100 µM); -4% in test [10] (100 µM, agonist); 4% in test [11] (100 µM, agonist); -1% in [12] (100 µM). Further, the “% (agonism) PF-07208254” value in test [13] (100 µM, agonist) amounted to 3%. Also, the “% Inhibition (antagonism) PF-07208254” value was -10% in [1] (100 µM, antagonist); -4% in test [5] (100 µM, antagonist); 8% in test [6] (100 µM, antagonist); 18% in test [8] (100 µM, antagonist); -5% in test [10] (100 µM, antagonist); -5% in test [11] (100 µM, antagonist). The “% Inhibition (antagonism) PF-07208254” value in test [13] (100 µM, antagonist) came to 18%.
Turning to `CCC1(COc2ccc(-c3csc(-c4ccccc4C(=O)O)n3)cn2)CC1` [PF-07247685, 2-(4-{6-[(1-ethylcyclopropyl)methoxy]pyridin-3-yl}-1,3-thiazol-2-yl)benzoic acid], the “% (agonism) PF-07247685” value is 39% in [1] (10 µM, agonist); -1% in test [2] (10 µM); 1% in [3] (10 µM); -3% in test [4] (10 µM); 0% in [5] (10 µM, agonist); 6% in test [6] (10 µM, agonist). Also, the “% (agonism) PF-07247685” value in [7] (10 µM) is reported as -7%; in [8] (10 µM, agonist) it was -1%; in [9] (10 µM), -1%; in test [10] (10 µM, agonist) it was 4%; in [11] (10 µM, agonist), 4%; in [12] (10 µM) it was 0%. Further, in test [13] (10 µM, agonist), the “% (agonism) PF-07247685” value was -8%. For the same molecule, the “% Inhibition (antagonism) PF-07247685” value is reported as -4% in [1] (10 µM, antagonist); 18% in test [5] (10 µM, antagonist); 27% in [6] (10 µM, antagonist); 3% in [8] (10 µM, antagonist); 5% in test [10] (10 µM, antagonist); 10% in test [11] (10 µM, antagonist). Moreover, in test [13] (10 µM, antagonist), the “% Inhibition (antagonism) PF-07247685” value was found to be 5%.
